# Experimental data as given in EP4603506A1, “NOVEL GLP-1 RECEPTOR ANTAGONIST, AND PHARMACEUTICAL COMPOSITION FOR PREVENTING OR TREATING CONGENITAL […] OR HYPOGLYCEMIA, COMPRISING SAME” (Hanmi Pharm. Co., Ltd., priority 2022, dated 2024).
# Starred links: 1 amine or outer side, 2 acyl side, 3 side chain; linkers in the order of their positions; H or OH if unused. Residues, ends and D or L forms follow the SMILES beside them. Groups on a side chain read outwards from the residue. *: point of attachment. C18 diacid = O=C(O)CCCCCCCCCCCCCCCCC(=O)*; γGlu = O=C(O)[C@H](CCC(=O)[*:2])N[*:1]; AEEA = NCCOCCOCC(=O)O
# Assays:
# human GLP-1R (hGLP-1R) = human GLP-1R (hGLP-1R) (Homo sapiens, UniProt P43220); assay: In vitro cell activity: cAMP inhibition (LANCE Ultra cAMP kit) in CHO cells expressing human GLP-1R, with GLP-1 added; assay type: cell-based; conditions: relative activity from IC50 of cAMP inhibition; 0.1 nM GLP-1 added; comparative substance exendin-3 (9-39) amide = 100
# Procedure: The human GLP-1R-expressed CHO cells were cultured in a 384-well plate for 24 hours. Thereafter, the culture was removed, and 10 µL of each serially diluted substance was added to the plate, followed by incubation at room temperature for 30 minutes. Then, 5 µL of Eu-cAMP tracer was added, and then 5 µL of a buffer containing cAMP antibodies was added, followed by incubation at room temperature for 60 minutes. […]
# C57BL/6N mice = assay: Oral glucose tolerance test (OGTT), blood glucose levels; assay type: in vivo; conditions: 2 g/kg oral glucose after 4-hour fasting, 3690 and 7380 µg/kg subcutaneous, 24 hours before OGTT, versus vehicle control, FIG. 1
# Procedure: The test was conducted on 8-week-old male mice, and during the study, five mice were housed in each group and had free access to drinking water. The lights were turned off from 6 PM to 6 AM.
# The administration of the drugs was completed 24 hours before the oral glucose tolerance test (OGTT) for Groups 1, 3, and 4, and 30 minutes before for Group 2. Particularly, the dose was expressed as a value based on the value obtained by subtracting the mass of the fatty acid moieties from the total mass of the acylated GLP-1 receptor antagonist analog conjugate, that is, the value obtained by summing the mass of each of only polypeptide moieties.
# As for the OGTT, all the groups were orally administered 2 g/kg glucose once after 4-hour fasting, and then blood samples were consecutively collected from the tail vein at specific time intervals (0, 15, 30, 60, and 120 minutes) to measure blood glucose levels by a OneTouch blood glucose meter (OneTouch Select®, LifeScan, USA). Statistical analysis was performed using an unpaired t-test to compare between the control group and the test groups (# ~ ###p < 0.05 ~ 0.001).
# [1] = tested on: PBH rat model (VSG, SD rats); assay: Mixed meal tolerance test (MMTT) in postbariatric hypoglycemia (PBH) rat model induced by vertical sleeve gastrectomy (VSG); assay type: in vivo; conditions: MMTT 4 hours after 3720 µg/kg (1070.5 nmol/kg) subcutaneous, versus excipient, FIG. 2
# Procedure: A PBH rat model was established by performing sham operations or VSG surgery on SD rats. The rats were fed a high-fat diet (HFD) for 19 weeks, and divided randomly into two groups with 10 animals each (an excipient control group and a GLP-1R antagonist analog conjugate administered group). […] As for the MMTT, all the groups were orally administered 2 mL of a mixed meal (Ensure Plus®, Abbott, USA) once after 5-hour fasting, and then blood samples were consecutively collected at specific time intervals (0, 15, 30, 45, 60, and 120 minutes) to measure blood glucose levels (GDoctor, Allmedicus Co., Korea). Statistical analysis was performed using the one-way ANOVA to compare between the VSG rat excipient group (control group) and the test groups (* ~ ***p < 0.05 ~ 0.001). Particularly, the dose was expressed as a value based on the value obtained by subtracting the mass of the fatty acid moieties from the total mass of the acylated GLP-1 receptor antagonist analog conjugate, that is, the value obtained by summing the masses of each of only polypeptide moieties.
# Additionally, 15 minutes after the MMTT test, plasma was isolated from blood samples, and the insulin secretion level was measured using a rat insulin ELISA kit ([…], Merck Millipore, USA).
# Sequence of human GLP-1R (hGLP-1R) (P43220 24-463): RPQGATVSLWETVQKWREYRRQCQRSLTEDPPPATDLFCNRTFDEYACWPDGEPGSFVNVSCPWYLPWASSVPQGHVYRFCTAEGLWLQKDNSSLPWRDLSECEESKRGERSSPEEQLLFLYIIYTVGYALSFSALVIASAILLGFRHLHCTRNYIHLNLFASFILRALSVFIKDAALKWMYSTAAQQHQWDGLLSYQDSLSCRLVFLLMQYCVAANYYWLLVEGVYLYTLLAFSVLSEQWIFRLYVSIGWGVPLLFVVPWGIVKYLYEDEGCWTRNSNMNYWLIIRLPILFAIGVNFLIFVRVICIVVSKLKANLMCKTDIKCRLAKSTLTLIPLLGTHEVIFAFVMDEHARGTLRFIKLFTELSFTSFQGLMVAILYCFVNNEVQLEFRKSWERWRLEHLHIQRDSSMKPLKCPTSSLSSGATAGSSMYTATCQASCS
Molecule,In vitro activity compared with comparative substance (%) (human GLP-1R (hGLP-1R)),blood glucose levels (C57BL/6N mice),blood glucose levels [1]
CC[C@H](C)[C@H](NC(=O)[C@H](Cc1ccccc1)NC(=O)[C@H](CC(C)C)NC(=O)[C@H](CCCNC(=N)N)NC(=O)[C@@H](NC(=O)[C@H](C)NC(=O)[C@H](CCC(=O)O)NC(=O)[C@H](CCC(=O)O)NC(=O)[C@H](CCC(=O)O)NC(=O)[C@H](CC(C)C)NC(=O)[C@H](Cc1ccc(O)cc1)NC(=O)[C@H](CO)NC(=O)[C@H](CO)NC(=O)[C@@H](NC(=O)[C@H](CC(=O)O)NC(C)=O)C(C)C)C(C)C)C(=O)N[C@@H](C)C(=O)N[C@@H](Cc1c[nH]c2ccccc12)C(=O)N[C@@H](CC(C)C)C(=O)N[C@H](C(=O)N[C@@H](CCCCN)C(=O)NCC(=O)NCC(=O)N1CCC[C@H]1C(=O)N[C@@H](CO)C(=O)N[C@@H](CO)C(=O)NCC(=O)N[C@@H](C)C(=O)N1CCC[C@H]1C(=O)N1CCC[C@H]1C(=O)N1CCC[C@H]1C(=O)N[C@@H](CO)C(=O)N[C@@H](CS)C(N)=O)C(C)C [SEQ ID NO: 12] (Ac-DVSSYLEEEAVRLFIAWLVKGGPSSGAPPPSC-NH2),189.3%,,
CC[C@H](C)[C@H](NC(=O)[C@H](Cc1ccccc1)NC(=O)[C@H](CC(C)C)NC(=O)[C@H](CCCNC(=N)N)NC(=O)[C@H](C)NC(=O)[C@H](C)NC(=O)[C@H](CCC(=O)O)NC(=O)[C@H](CCC(=O)O)NC(=O)[C@H](CCC(=O)O)NC(=O)[C@H](CC(C)C)NC(=O)[C@H](Cc1ccc(O)cc1)NC(=O)[C@H](CO)NC(=O)[C@H](CO)NC(=O)[C@H](CC(C)C)NC(=O)[C@H](CC(=O)O)NC(C)=O)C(=O)N[C@@H](CCC(=O)O)C(=O)N[C@@H](Cc1c[nH]c2ccccc12)C(=O)N[C@@H](CC(C)C)C(=O)N[C@@H](CCCCNC(=O)COCCOCCNC(=O)COCCOCCNC(=O)CC[C@H](NC(=O)CCCCCCCCCCCCCCCCC(=O)O)C(=O)O)C(=O)N[C@@H](CC(N)=O)C(=O)NCC(=O)NCC(=O)N1CCC[C@H]1C(=O)N[C@@H](CO)C(=O)N[C@@H](CO)C(=O)NCC(=O)N[C@@H](C)C(=O)N1CCC[C@H]1C(=O)N1CCC[C@H]1C(=O)N1CCC[C@H]1C(=O)N[C@@H](CO)C(N)=O [SEQ ID NO: 14],1.7%,,
CC[C@H](C)[C@H](NC(=O)[C@H](Cc1ccccc1)NC(=O)[C@H](CC(C)C)NC(=O)[C@H](CCCNC(=N)N)NC(=O)[C@@H](NC(=O)[C@H](C)NC(=O)[C@H](CCC(=O)O)NC(=O)[C@H](CCC(=O)O)NC(=O)[C@H](CCC(=O)O)NC(=O)[C@H](CC(C)C)NC(=O)[C@H](Cc1ccc(O)cc1)NC(=O)[C@H](CO)NC(=O)[C@H](CO)NC(=O)[C@@H](NC(=O)[C@H](CC(=O)O)NC(C)=O)C(C)C)C(C)C)C(=O)N[C@@H](C)C(=O)N[C@@H](Cc1c[nH]c2ccccc12)C(=O)N[C@@H](CC(C)C)C(=O)N[C@H](C(=O)N[C@@H](CCCCNC(=O)COCCOCCNC(=O)COCCOCCNC(=O)CC[C@H](NC(=O)CCCCCCCCCCCCCCCCC(=O)O)C(=O)O)C(=O)NCC(=O)NCC(=O)N1CCC[C@H]1C(=O)N[C@@H](CO)C(=O)N[C@@H](CO)C(=O)NCC(=O)N[C@@H](C)C(=O)N1CCC[C@H]1C(=O)N1CCC[C@H]1C(=O)N1CCC[C@H]1C(=O)N[C@@H](CO)C(N)=O)C(C)C [SEQ ID NO: 15],14.3%,,
CC[C@H](C)[C@H](NC(=O)[C@H](Cc1ccccc1)NC(=O)[C@H](CC(C)C)NC(=O)[C@H](CCCNC(=N)N)NC(=O)[C@H](C)NC(=O)[C@H](C)NC(=O)[C@H](CCC(=O)O)NC(=O)[C@H](CCC(=O)O)NC(=O)[C@H](CCC(=O)O)NC(=O)[C@H](CC(C)C)NC(=O)[C@H](Cc1ccc(O)cc1)NC(=O)[C@H](CO)NC(=O)[C@H](CO)NC(=O)[C@@H](NC(=O)[C@H](CC(=O)O)NC(C)=O)C(C)C)C(=O)N[C@@H](C)C(=O)N[C@@H](Cc1c[nH]c2ccccc12)C(=O)N[C@@H](CC(C)C)C(=O)N[C@H](C(=O)N[C@@H](CCCCNC(=O)COCCOCCNC(=O)COCCOCCNC(=O)CC[C@H](NC(=O)CCCCCCCCCCCCCCCCC(=O)O)C(=O)O)C(=O)NCC(=O)NCC(=O)N1CCC[C@H]1C(=O)N[C@@H](CO)C(=O)N[C@@H](CO)C(=O)NCC(=O)N[C@@H](C)C(=O)N1CCC[C@H]1C(=O)N1CCC[C@H]1C(=O)N1CCC[C@H]1C(=O)N[C@@H](CO)C(N)=O)C(C)C [SEQ ID NO: 16],13.5%,,
CC[C@H](C)[C@H](NC(=O)[C@H](Cc1ccccc1)NC(=O)[C@H](CC(C)C)NC(=O)[C@H](CCCNC(=N)N)NC(=O)[C@@H](NC(=O)[C@H](C)NC(=O)[C@H](CCC(=O)O)NC(=O)[C@H](CCC(=O)O)NC(=O)[C@H](CCC(=O)O)NC(=O)[C@H](CC(C)C)NC(=O)[C@H](Cc1ccc(O)cc1)NC(=O)[C@H](CO)NC(=O)[C@H](CO)NC(=O)[C@@H](NC(=O)[C@H](CC(=O)O)NC(C)=O)C(C)C)C(C)C)C(=O)N[C@@H](C)C(=O)N[C@@H](Cc1c[nH]c2ccccc12)C(=O)N[C@@H](CC(C)C)C(=O)N[C@H](C(=O)N[C@@H](CCCCN)C(=O)NCC(=O)NCC(=O)N1CCC[C@H]1C(=O)N[C@@H](CO)C(=O)N[C@@H](CO)C(=O)NCC(=O)N[C@@H](C)C(=O)N1CCC[C@H]1C(=O)N1CCC[C@H]1C(=O)N1CCC[C@H]1C(=O)N[C@@H](CO)C(=O)N[C@@H](CCCCNC(=O)COCCOCCNC(=O)COCCOCCNC(=O)CC[C@H](NC(=O)CCCCCCCCCCCCCCCCC(=O)O)C(=O)O)C(N)=O)C(C)C [SEQ ID NO: 18] (Ac-DVSSYLEEEAVRLFIAWLVKGGPSSGAPPPSK([AEEA-AEEA-γGlu-C18 diacid])-NH2),19.8%,,
DLSSYLEEEAVRLFIEWLKNGGPSSGAPPPSK(2) [SEQ ID NO: 17],,increased the blood glucose levels in vivo compared with the control group at all the doses,significantly increased blood glucose levels in vivo compared with PBH rats administered the excipient
